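Grown in 96-well plates, cells were treated for 48 hours with each compound at five concentrations. Insufficient inhibition: endpoint recorded as highest concentration tested. At the GI50, growth is halved. TGI marks complete inhibition of growth.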
Legend:
Assay in all cases: NCI tumour cell line growth inhibition, 48 h
[1] = system: COLO 205 colon
[2] = system: EKVX NSCLC
[3] = system: HCC-2998 colon
[4] = system: HCT-15 colon
[5] = system: LOX IMVI melanoma
[6] = system: MCF7 breast
[7] = system: PC-3 prostate
[8] = system: SK-MEL-5 melanoma
[9] = system: UO-31 renal
[10] = system: SR leukemia

| Structure (SMILES) | TGI [1] [µM] | TGI [2] [µM] | TGI [3] [µM] | TGI [4] [µM] | TGI [5] [µM] | TGI [6] [µM] | TGI [7] [µM] | TGI [8] [µM] | TGI [9] [µM] | GI50 [1] [µM] | GI50 [2] [µM] | GI50 [3] [µM] | GI50 [4] [µM] | GI50 [5] [µM] | GI50 [6] [µM] | GI50 [7] [µM] | GI50 [8] [µM] | GI50 [9] [µM] | TGI [10] [µM] |
| --- | --- | --- | --- | --- | --- | --- | --- | --- | --- | --- | --- | --- | --- | --- | --- | --- | --- | --- | --- |
| CCOC(=O)C1=CC(C)(C(=O)OCC)Nc2c(nc(N)[nH]c2=O)N1 (configuration not stated) | > 10 | > 10 | > 10 | > 10 | > 10 | > 10 | > 10 | > 10 | > 10 |  |  |  |  |  |  |  |  |  |  |
| CC(C)C(N)C(=O)NC(CCC(=O)NCCCCC(N)C(=O)NCCCNc1ccc([N+](=O)[O-])c2[nH]c3ccccc3c(=O)c12)C(N)=O (configuration not stated) | > 100 | > 100 | > 100 | > 100 | 80.2 |  | > 100 | > 100 | > 100 |  |  |  |  |  |  |  |  |  |  |
| COc1ccc(-n2nc(C)c3c(Nc4ccc(NC(=O)Nc5ccc(Cl)c(C(F)(F)F)c5)cc4)ncnc32)cc1 | 3.64 | 5.55 | 5.64 | 3.09 | 2.67 | 6.03 | 3.95 | 3.23 | 3.69 | 1.71 | 2.19 | 2.22 | 1.42 | 1.34 | 2.12 | 1.16 | 1.72 | 1.7 |  |
| c1ccc2[nH]c(CNc3ccc(C4C[Se]N=N4)cc3)nc2c1 (configuration not stated) | > 100 |  | > 100 | > 100 | > 100 |  |  | 46.4 | > 100 |  |  |  |  |  |  |  |  |  | 36 |
| CC(=O)Oc1c(C)c(C)c2c(c1C)CCC(C)(CC(=O)OCCCCCCCCCCC[P+](c1ccccc1)(c1ccccc1)c1ccccc1)O2 (configuration not stated) | 1.39 |  |  |  |  |  | 0.976 | 0.359 |  | 0.391 |  |  |  |  |  | 0.194 | 0.191 |  |  |
| O=C1/C(=C/c2cccc([N+](=O)[O-])c2)Sc2scc(-c3ccc([N+](=O)[O-])cc3)[n+]21 | > 100 | 61.1 | 29.9 | 33.6 | 46.3 | > 100 | > 100 | > 100 | 24.1 |  |  |  |  |  |  |  |  |  |  |
| Nc1ccc(-c2nn3c(COc4ccc(Cl)cc4)nnc3s2)cc1 | > 100 | > 100 | > 100 | > 100 | > 100 | > 100 | > 100 | > 100 | > 100 |  |  |  |  |  | 41 |  |  |  |  |
| CSc1nc2c(ncn2C2OC(CO)C(O)C(O)C2O)c(=O)[nH]1 (configuration not stated) | > 100 | > 100 | > 100 | > 100 | > 100 | > 100 |  | > 100 | > 100 |  |  |  |  |  |  |  |  |  |  |
| Nc1ccccc1C(=O)C(Br)C(Br)c1ccc2c(c1)OCO2 (configuration not stated) | 27.4 | 52 | 42.5 | 48.1 | 27.8 |  |  |  | 45.1 |  |  |  |  |  |  |  |  |  | > 100 |
| Cc1cc(O)c(-c2cc(O)c(C)cc2O)cc1O | 22.6 | 28.7 | 27.3 | > 51.1 | 16.6 | 47.6 | 27.6 | 28.4 | 5.4 |  |  |  |  |  |  |  |  |  |  |
| CN1N=C(c2ccncc2)OC1c1ccccc1F (configuration not stated) | > 100 | > 100 | > 100 | > 100 | > 100 |  | > 100 | > 100 | > 100 |  |  |  |  |  |  |  |  |  |  |
| O=C(NN1C(=O)CSC1c1cccc(F)c1)c1ccncc1 (configuration not stated) | > 100 | > 100 | > 100 | > 100 | > 100 |  |  | > 100 | > 100 |  |  |  |  |  |  |  |  |  |  |
| O=C1C=CC(=O)C(CNc2ccc(C(=O)OCc3ccccc3)cc2)=C1 | 3.79 | 23.7 | 31.6 | 9.1 | 17.8 | 18.5 | 13.4 | 11.6 | 7.49 |  |  |  |  |  |  |  |  |  |  |
| COc1cc([N+](=O)[O-])c(OC)c2c(Nc3ccc(S(=O)(=O)O)c4cc(S(=O)(=O)O)cc(S(=O)(=O)O)c34)cc(C)nc12 | > 100 | > 100 |  |  | > 100 | > 100 | > 100 | > 100 | > 100 |  |  |  |  |  |  |  |  |  |  |
| N#C/C(=C1\SC(N=Nc2ccc(Cl)cc2)C(=O)N1c1ccccc1)c1nc2ccccc2[nH]1 (configuration not stated) | > 100 | > 100 |  | > 100 | 57.4 |  |  | > 100 | 40 |  |  |  |  |  |  |  |  |  |  |
| COP(=O)(OC)C(Nc1ccc(Cc2ccc(NC(c3ccco3)P(=O)(OC)OC)cc2)cc1)c1ccco1 (configuration not stated) | > 100 | 94.4 |  | > 100 | > 100 | > 100 | > 100 | > 100 | > 100 |  |  |  |  |  |  |  |  |  |  |
| CC1=NNC(=O)C1C1CC(c2c[nH]c3ccccc23)=NN=C1Cl (configuration not stated) | 80.6 | > 100 |  | > 100 | > 100 |  | > 100 | > 100 | > 100 |  |  |  |  |  |  |  |  |  |  |
| O=[N+]([O-])c1cc(Cl)ccc1Sc1ccccc1 | > 100 | > 100 | > 100 | > 100 | > 100 | > 100 | > 100 | > 100 | > 100 |  |  |  |  |  |  |  |  |  |  |
| COc1ccc(/C=N/n2c(C)nc3c(sc(=S)n3-c3ccccc3)c2=O)cc1 | > 100 |  | > 100 |  |  |  |  | > 100 | > 100 |  |  |  |  |  |  |  |  |  | > 100 |

Reference: PubChem BioAssay (NCI)
